Assays:
CD8^+ T-lymphocytes = assay: Proliferation after activation (CFSE dilution, viable cell number); format: cell-based, mouse; details: 0.5 mM; for proliferation following activation: with IL-2
Method: Data are representative of 4 mice.
Cells were then treated with 0.5 mM S-2HG-octyl ester, 0.5 mM R-2HG-octyl ester or vehicle and counting was performed at indicated time points after initiation of treatment. n=8 mice per condition.
Cells were counted on an ADAM-MC automated cell counter (NanoEnTek) and viability was assessed by the exclusion of propidium iodide. Cell volume was determined using a Z2 Coulter counter (Beckman Coulter).

HIF-1α = assay: Immunoblot of nuclear fractions for HIF-1α in treated CD8+ T-lymphocytes; format: cell-based, mouse; details: for abundance of HIF-1α protein at 7 days of continuous treatment: 0.5 mM
Method: (§1) FIG. 6A showns immunoblot analysis for HIF-1α, HDAC1, phospho-PDH E1α (S232) and total PDH-E1α in response to increasing concentrations of S-2HG-octyl ester or R-2HG-octyl ester, or 10 mM of the free acid forms of S-2HG or R-2HG for 16 hours. Cells were activated for 48 h with αCD3+αCD28 antibodies and then expanded for a further 4 days in the presence of IL-2 followed by treatment with the indicated concentration of S-2HG-octyl ester or R-2HG octyl ester, or 10 mM of the free acid forms of S-2HG or R-2HG for 16 hours. The arrow indicates HIF-1α protein.
(§2) The arrow indicates HIF-2a protein.
(§3) Nuclear and cytosolic fractions were prepared from cells with the NE-PER kit (Thermo Scientific) and separated by SDS-PAGE. Proteins were transferred to PVDF membranes and then blocked in 5% milk prepared in phosphate-buffered saline (PBS) plus 0.05% Tween 20. Membranes were then incubated with primary antibodies overnight at 4° C. and horseradish peroxidase (HRP)-conjugated secondary antibodies for 1 h the next day. The following primary antibodies were used at a dilution of 1:1000: HIF1α (Novus), HIF2α (Novus), PDH-E1α (Abcam), PDH-E1α pS232 (Calbiochem), LaminB1 (Abcam), HDAC1 (Abcam), β-tubulin (Abcam), 4E-BP1 (Cell Signalling), phospho-4E-BP1 (S65) (Cell Signalling), phospho-4E-BP1 (T37/T46) (Cell Signalling) S6K (Cell Signalling), phopho-S6K (T389) (Cell Signalling), phopho-S6K (S371) (Cell Signalling).

[1] = test system: OT-I CD8^+CD45.1^+ T-lymphocytes; assay: In vivo memory recall experiment (adoptive transfer, vaccination); design: species or system mouse; details: for formation of memory cells after in vitro treatment of CD8+ T-cells: 0.5 mM, 7 days with IL-2 (FIGS. 13, 16, 17); for in vivo recall in response to vaccination: cells pre-treated 7 days with 0.5 mM, 37 days after adoptive transfer
Method: FIGS. 13B and 13C show representative flow cytometry plots of (B) CD8^+CD45.1^+ (C) or Kb/SIINFEKL Pentamer^+CD45.1^+ T-lymphocytes, in the spleens of vaccinated litter mate CD45.2 mice, 37 days after adoptive transfer of SIINFEKL-activated OT-I CD8^+CD45.1^+ T-lymphocytes, expanded with 0.5 mM S-2HG-octyl ester, 0.5 mM R-2HG-octyl ester or vehicle in the presence of IL-2 for 7 days. FIGS. 13D-F show (13D) the number of recovered CD45.1^+CD8^+ T-lymphocytes per spleen and (13E) % CD45.1^+ cells of the total CD8^+ population in each spleen or (13F) number of recovered Kb/SIINFEKL Pentamer^+CD45.1^+ T-lymphocytes per spleen 7 days after vaccination (37 days after the CD8+ T-cells were transferred into the mice). n=6 mice per group and error bars denote the s.e.m.
Total splenocytes from OT-1 CD45.1^+ mice were activated with 1000 nM SIINFEKL peptide in the presence of IL-2 and vehicle, 0.5 mM S-2HG-octyl ester or 0.5 mM R-2HG-octyl ester for 7 days. 1 million CD45^+CD8^+ cells were then injected intravenously into C57/B6 wild type CD45.2^+ host mice. 30 days later, host mice were vaccinated i.p. with SIINFEKL-loaded dendritic cells. 7 days later, spleens were harvested from host mice and the presence of CD45.1^+CD8^+ and Kb/SIINFEKL Pentamer+cells was determined by flow cytometry. Absolute numbers of cells were determined with the use of counting beads (CountBright, Life Technologies). Dendritic cells were prepared from bone marrow extracted from wild type C57/B6 mice. Bone marrow derived cells were cultured in non-TC treated petri dishes in RPMI-1640 medium containing 2 mM glutamine, 10% FBS, 25 mM HEPES, pH 7.2, 1% penicillin-streptomycin, 55 μM […] supplemented 20 ng/ml mGM-CSF (R&D Systems). After 8 days of culture, dendritic cells were activated with 1 μg/ml LPS (Sigma) for 24 h. The maturation of dendritic cells was confirmed by flow cytometry using the following markers: MHC class II-APC, CD11b-AF488, CD11c-AF488 and CD86-PE/Cy7 (Biolegend). Mature dendritic cells were then loaded with 2 μM SIINFEKL peptide at 37° C. for 1 hour. After peptide loading, dendritic cells were detached with 3 mM EDTA in PBS for 5-10 min at 37° C. and washed with PBS. For vaccination, 1 million peptide-loaded dendritic cells were injected i.p. per mouse in 100 μl PBS.

HIF-2a = assay: Immunoblot on nuclear extracts for HIF-2a in treated CD8+ T-lymphocytes; format: cell-based, mouse; details: 0.5 mM, 1 day or 7 days of treatment
Method: as §2, §3

mTOR = mTOR signalling immunoblot; format: cell-based, mouse; details: 100 μM to 500 μM
Method: as §3

PDH-E1α = assay: Immunoblot for phospho-PDH E1α (S232) in treated CD8+ T-lymphocytes; format: cell-based, mouse; details: 16 hours treatment
Method: as §1, §3

EG7-OVA cells = assay: In vitro cytotoxicity assay (specific killing by OT-I CD8+ T-lymphocytes); format: cell-based, mouse; details: 0.5 mM for 24 h, 4 hours with target and control cells
Method: Total splenocytes were activated for 48 h with 1000 nM SIINFEKL and then expanded for a further 4 days in the presence of IL-2 followed by treatment 0.5 mM of S-2HG-octyl R-2HG-octyl ester ester for 24 h. OT-I CD8^+ T-lymphocytes were incubated with target and control cells for 4 hours. n=3 mice per condition. […] Cells were activated for 48 h with αCD3+αCD28 antibodies and then expanded for a further 4 days in the presence of IL-2 followed by treatment with the indicated concentration of S-2HG-octyl ester or R-2HG-octyl ester for 24 hours. n≥16 mice.
Total splenocytes from OT-I mice were activated with SIINFEKL-peptide for 48 h and expanded for a further 4 days in IL-2 containing medium. OT-I-specific CD8^+ T-cells were then treated for 24 h with or without 0.5 mM S-2HG-octyl ester or R-2HG-octyl ester and then incubated with target (EG7-OVA, CFSE-low) and control (EL4, CFSE high) cells. Specific lysis was calculated by normalization of the loss in signal of the CFSE-low population relative to the CFSE-high population after co-culture of 4 hours with the vehicle or S-2HG-octyl ester or R-2HG-octyl ester-treated OT-I-specific CD8^+ T-cells.

| Compound | restriction in proliferation compared with S-2HG-octyl ester (CD8^+ T-lymphocytes) | proliferation following activation (CD8^+ T-lymphocytes) | abundance of HIF-1α protein at 7 days of continuous treatment (HIF-1α) | formation of memory cells after in vitro treatment of CD8+ T-cells [1] | in vivo recall in response to vaccination [1] | abundance of HIF-2a protein (HIF-2a) | mTOR signalling (mTOR) | phosphorylation of PDH-E1a (PDH-E1α) | lytic ability of antigen specific OT-I CD8+ T-cells (EG7-OVA cells) | HIF-1α stabilization (HIF-1α; increasing concentrations of octyl ester, 16 hours, activated CD8+ T-lymphocytes) |
| --- | --- | --- | --- | --- | --- | --- | --- | --- | --- | --- |
| CCCCCCCCOC(=O)[C@H](O)CCC(=O)O [R-2HG-octyl ester] | less pronounced | decreasing proliferation | increase in abundance is seen | induces the formation | enhanced in vivo recall | increase in the abundance | does not inhibit | increased | markedly lower | – |
| CCCCCCCCOC(=O)[C@@H](O)CCC(=O)O [S-2HG-octyl ester, S-2HG octyl ester] | – | decreasing proliferation | increase in abundance is seen | induces the formation | enhanced in vivo recall | increase in the abundance | does not inhibit | increased | markedly lower | stabilized |
